In patent publication US20240343733A1, “COMPOUNDS FOR TARGETING DEGRADATION OF IRAK4 PROTEINS” (BIOGEN MA INC., priority 2021, published 2024) one finds DC50 data, which are given here for 16 compounds.

In the test the target is T1, IRAK4 (Homo sapiens, UniProt Q9NWZ3).
T1 construct: 293Tcells expressing HiBiT-tagged IRAK4 were then added into 384-well plates
T1 sequence (Q9NWZ3 1-460): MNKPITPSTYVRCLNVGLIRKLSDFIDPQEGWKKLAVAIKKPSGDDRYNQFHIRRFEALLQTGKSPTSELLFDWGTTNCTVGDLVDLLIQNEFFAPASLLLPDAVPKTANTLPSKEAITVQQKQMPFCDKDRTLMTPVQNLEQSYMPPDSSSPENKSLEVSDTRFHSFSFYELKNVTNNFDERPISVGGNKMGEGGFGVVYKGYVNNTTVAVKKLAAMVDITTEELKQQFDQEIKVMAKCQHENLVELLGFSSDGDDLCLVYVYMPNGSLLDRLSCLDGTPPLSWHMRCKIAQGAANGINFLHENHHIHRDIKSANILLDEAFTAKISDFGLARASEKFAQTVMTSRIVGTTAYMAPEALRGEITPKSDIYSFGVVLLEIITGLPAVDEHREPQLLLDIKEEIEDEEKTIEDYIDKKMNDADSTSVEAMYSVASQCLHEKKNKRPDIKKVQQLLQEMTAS
The test is described as follows: IRAK4 Degradation Assay, HiBiT Method. The format is cell-based. Conditions: 293T cells expressing HiBiT-tagged IRAK4, 6 hours. As for the experimental part: Assay 1. IRAK4 Degradation Assay, HiBiT Method
Selected compounds were tested in an IRAK4 degradation assay using the HiBiT Method.
Phenol red-free Dulbecco's modified Eagle medium (DMEM) and fetal bovine serum (FBS) were purchased from Gibco (Grand Island, NY, USA). The Nano-Glo® HiBiT Lytic Assay System was purchased from Promega (Madison, WI, USA). Cell culture flasks and 384-well microplates were acquired from VWR (Radnor, PA, USA). The 293Tcell line was engineered by knocking-in a HiBiT fusion tag into the C-terminal of the IRAK4 gene in 293T cells (Synthego, Redwood City, CA, USA).
IRAK4 degradation was measured via the quantification of luminescent signals using the Nano-Glo® HiBiT Lytic Assay kit. Test compounds were added to 384-well plates in duplicate using an 11-point half-log dilution series, with the highest dose set at […]. 293Tcells expressing HiBiT-tagged IRAK4 were then added into 384-well plates at a cell density of 10,000 cells per well. The plates were kept at 37° C. with 5% CO2 for 6 hours. Cells that were treated only with DMSO served as the negative control; wells that contained only assay media served as the background control. After the 6-hour incubation, Nano-Glo® HiBiT Lytic Assay reagents were added to the cells. Luminescence was acquired using an EnVision™ Multilabel Reader (PerkinElmer, Santa Clara, CA, USA).
For orientation: With HiBiT, luminescence reflects the tagged protein that the partner subunit can reach.
A word on the DC50: it is the concentration at which degradation of the target reaches its halfway point. Lower therefore signals degradation at low concentration. Consider `CC(C)Oc1cc2nc([C@H]3CC[C@H](CN4CCC(c5ccc(C6CCC(=O)NC6=O)cc5F)CC4)CC3)cn2cc1C(=O)Nc1cccc(C(F)(F)F)n1` (stereo partly shown) [Example 6, 2-[4-[[4-[4-(2,6-dioxo-3-piperidyl)-2-fluoro-phenyl]-1-piperidyl]methyl]cyclohexyl]-7-isopropoxy-N-[6-(trifluoromethyl)-2-pyridyl]imidazo[1,2-a]pyridine-6-carboxamide], for which the DC50 was 100 to 500 nM. The same measure for `CC(C)Oc1cc2nn(C3CCN(C(=O)CC4(O)CCN(c5ccc(NC6CCC(=O)NC6=O)cc5)CC4)CC3)cc2cc1C(=O)Nc1cccc(C(F)F)n1` (stereo not shown) [Example 65, N-(6-(difluoromethyl)pyridin-2-yl)-2-(1-(2-(1-(4-((2,6-dioxopiperidin-3-yl)amino)phenyl)-4-hydroxypiperidin-4-yl)acetyl)piperidin-4-yl)-6-isopropoxy-2H-indazole-5-carboxamide]: 10 to 100 nM. With `CC(C)Oc1cc2nc([C@H]3CC[C@H](CN4CCC(c5ccc6c(c5)oc(=O)n6C5CCC(=O)NC5=O)CC4)CC3)cn2cc1C(=O)Nc1cccn([C@H]2C[C@H]2F)c1=O` (stereo partly drawn) [Example 175, 2-((1r,4S)-4-((4-(3-(2,6-dioxopiperidin-3-yl)-2-oxo-2,3-dihydrobenzo[d]oxazol-6-yl)piperidin-1-yl)methyl)cyclohexyl)-N-(1-((1S,2R)-2-fluorocyclopropyl)-2-oxo-1,2-dihydropyridin-3-yl)-7-isopropoxyimidazo[1,2-a]pyridine-6-carboxamide], the DC50 was under 10 nM. The compound `CC(C)Oc1cc2nc(C3CCN(C(=O)CC4CC5(C4)CN(c4ccc(C6CCC(=O)NC6=O)cc4)C5)CC3)cn2cc1C(=O)Nc1cccc(C(F)F)n1` (stereo not shown) [Example 90, N-[6-(difluoromethyl)-2-pyridyl]-2-[1-[2-[2-[4-(2,6-dioxo-3-piperidyl)phenyl]-2-azaspiro[3.3]heptan-6-yl]acetyl]-4-piperidyl]-7-isopropoxy-imidazo[1,2-a]pyridine-6-carboxamide] displayed a half-maximal degradation concentration (DC50) of 10 to 100 nM.

The compound `CC(C)Oc1cc2nc(C3CCN(C(=O)CC4(O)CCN(c5ccc(NC6CCC(=O)NC6=O)cc5)CC4)CC3)cn2cc1C(=O)Nc1cccc(C(F)(F)F)n1` (stereo not shown) [Example 72, 2-[1-[2-[1-[4-[(2,6-dioxo-3-piperidyl)amino]phenyl]-4-hydroxy-4-piperidyl]acetyl]-4-piperidyl]-7-isopropoxy-N-[6-(trifluoromethyl)-2-pyridyl]imidazo[1,2-a]pyridine-6-carboxamide] came in with a 50% degradation concentration (DC50) of 10 to 100 nM. The same measure for `CC(C)Oc1cc2nc(C3CCC(CN4CCC(c5ccc(NC6CCC(=O)NC6=O)cc5F)CC4)CC3)cn2cc1C(=O)Nc1cccc(C(F)(F)F)n1` (stereo not shown) [Example 1, 2-[4-[[4-[4-[(2,6-dioxo-3-piperidyl)amino]-2-fluoro-phenyl]-1-piperidyl]methyl]cyclohexyl]-7-isopropoxy-N-[6-(trifluoromethyl)-2-pyridyl]imidazo[1,2-a]pyridine-6-carboxamide]: 100 to 500 nM; for `CC(C)Oc1cc2nn(C3CCN(C(=O)CN4CCC(c5ccc(C6CCC(=O)NC6=O)cc5)CC4)CC3)cc2cc1C(=O)Nc1cccc(C(F)F)n1` (stereo not shown) [Example 62, N-[6-(difluoromethyl)-2-pyridyl]-2-[1-[2-[4-[4-(2,6-dioxo-3-piperidyl)phenyl]-1-piperidyl]acetyl]-4-piperidyl]-6-isopropoxy-indazole-5-carboxamide]: under 10 nM; for `CC(C)Oc1cc2nc([C@H]3CC[C@H](CN4CCC(c5cccc6c5n(C)c(=O)n6C5CCC(=O)NC5=O)CC4)CC3)cn2cc1C(=O)Nc1cccc(C(F)F)n1` (stereo partly shown) [Example 17, N-[6-(difluoromethyl)-2-pyridyl]-2-[4-[[4-[1-(2,6-dioxo-3-piperidyl)-3-methyl-2-oxo-benzimidazol-4-yl]-1-piperidyl]methyl]cyclohexyl]-7-isopropoxy-imidazo[1,2-a]pyridine-6-carboxamide]: 10 to 100 nM. Under `CC(C)Oc1cc2nn(C3CCN(C(=O)CN4CCC(c5ccc(NC6CCC(=O)NC6=O)cc5F)CC4)CC3)cc2cc1C(=O)Nc1cccc(C(F)F)n1` (stereo not shown) [Example 64, N-(6-(difluoromethyl)pyridin-2-yl)-2-(1-(2-(4-(4-((2,6-dioxopiperidin-3-yl)amino)-2-fluorophenyl)piperidin-1-yl)acetyl)piperidin-4-yl)-6-isopropoxy-2H-indazole-5-carboxamide] stands 500 to 1000 nM; under `CC(C)Oc1cc2nn([C@H]3CC[C@H](CN4CC5(C4)CN(c4ncc(C6CCC(=O)NC6=O)cc4F)C5)CC3)cc2cc1C(=O)Nc1cccn([C@H]2C[C@H]2F)c1=O` (stereo partly drawn) [Example 126, 2-((1r,4S)-4-((6-(5-(2,6-dioxopiperidin-3-yl)-3-fluoropyridin-2-yl)-2,6-diazaspiro[3.3]heptan-2-yl)methyl)cyclohexyl)-N-(1-((1S,2R)-2-fluorocyclopropyl)-2-oxo-1,2-dihydropyridin-3-yl)-6-isopropoxy-2H-indazole-5-carboxamide], under 10 nM; under `CC(C)Oc1cc2nc([C@H]3CC[C@H](CN(C)C4CCN(Cc5ccc6c(c5)n(C)c(=O)n6C5CCC(=O)NC5=O)CC4)CC3)cn2cc1C(=O)Nc1cccc(C(F)F)n1` (stereo partly shown) [Example 43, N-[6-(difluoromethyl)-2-pyridyl]-2-[4-[[[1-[[1-(2,6-dioxo-3-piperidyl)-3-methyl-2-oxo-benzimidazol-5-yl]methyl]-4-piperidyl]-methyl-amino]methyl]cyclohexyl]-7-isopropoxy-imidazo[1,2-a]pyridine-6-carboxamide], 10 to 100 nM. Under `CC(C)Oc1cc2nn([C@H]3CC[C@H](CN4CCC(c5ccc6c(c5)n(C)c(=O)n6C5CCC(=O)NC5=O)CC4)CC3)cc2cc1C(=O)Nc1cccn([C@H]2C[C@H]2F)c1=O` (stereo partly drawn) [Example 137, 2-((1r,4S)-4-((4-(1-(2,6-dioxopiperidin-3-yl)-3-methyl-2-oxo-2,3-dihydro-1H-benzo[d]imidazol-5-yl)piperidin-1-yl)methyl)cyclohexyl)-N-(1-((1S,2R)-2-fluorocyclopropyl)-2-oxo-1,2-dihydropyridin-3-yl)-6-isopropoxy-2H-indazole-5-carboxamide] stands under 10 nM. Consider `CC(C)Oc1cc2nc(C3CCN(C(=O)CC4(O)CCN(c5cc(F)c(NC6CCC(=O)NC6=O)cc5F)CC4)CC3)cn2cc1C(=O)Nc1cccc(C(F)(F)F)n1` (stereo not shown) [Example 74, 2-[1-[2-[1-[4-[(2,6-dioxo-3-piperidyl)amino]-2,5-difluoro-phenyl]-4-hydroxy-4-piperidyl]acetyl]-4-piperidyl]-7-isopropoxy-N-[6-(trifluoromethyl)-2-pyridyl]imidazo[1,2-a]pyridine-6-carboxamide], for which the 50% degradation concentration (DC50) was 10 to 100 nM.

Turning to `CC(C)Oc1cc2nc(C3CCN(CC(=O)N4CCC(c5ccc(NC6CCC(=O)NC6=O)cc5)CC4)CC3)cn2cc1C(=O)Nc1ccccn1` (stereo not shown) [Example 109, 2-[1-[2-[4-[4-[(2,6-dioxo-3-piperidyl)amino]phenyl]-1-piperidyl]-2-oxo-ethyl]-4-piperidyl]-7-isopropoxy-N-(2-pyridyl)imidazo[1,2-a]pyridine-6-carboxamide], the 50% degradation concentration (DC50) was 10 to 100 nM. For `CC(C)Oc1cc2nc(C3CCN(C(=O)CC4(O)CCN(c5ccc6c(C7CCC(=O)NC7=O)nn(C)c6c5)CC4)CC3)cn2cc1C(=O)Nc1cccc(C(F)F)n1` (stereo not shown) [Example 79, N-[6-(difluoromethyl)-2-pyridyl]-2-[1-[2-[1-[3-(2,6-dioxo-3-piperidyl)-1-methyl-indazol-6-yl]-4-hydroxy-4-piperidyl]acetyl]-4-piperidyl]-7-isopropoxy-imidazo[1,2-a]pyridine-6-carboxamide], the half-maximal degradation concentration (DC50) is 10 to 100 nM. Under `CC(C)Oc1cc2nc([C@H]3CC[C@H](CN4CC[C@H](c5ccc6c(N7CCC(=O)NC7=O)nn(C)c6c5)[C@H](O)C4)CC3)cn2cc1C(=O)Nc1cccn(C2CC2)c1=O` [Example 178, N-(1-cyclopropyl-2-oxo-1,2-dihydropyridin-3-yl)-2-((S,4r)-4-(((3S,4R)-4-(3-(2,4-dioxotetrahydropyrimidin-1(2H)-yl)-1-methyl-1H-indazol-6-yl)-3-hydroxypiperidin-1-yl)methyl)cyclohexyl)-7-isopropoxyimidazo[1,2-a]pyridine-6-carboxamide] stands under 10 nM.
